Results as given in ChEMBL document CHEMBL5390320, “Discovery of a Novel Benzodiazepine Series of Cbl-b Inhibitors for the Enhancement of Antitumor Immunity” (ACS Med Chem Lett, 2023).
Blank lines part the entries; values can stand above or below the compound they belong to.

Key:
[1] = target: T1, E3 ubiquitin-protein ligase CBL-B (Homo sapiens, UniProt Q13191); assay: Displacement of FAM-labeled probe from recombinant biotinylated Cbl-b (unknown origin) expressed in Escherichia coli BL21(DE3) Tuner cells by TR-FRET assay
T1 sequence (Q13191 whole entry): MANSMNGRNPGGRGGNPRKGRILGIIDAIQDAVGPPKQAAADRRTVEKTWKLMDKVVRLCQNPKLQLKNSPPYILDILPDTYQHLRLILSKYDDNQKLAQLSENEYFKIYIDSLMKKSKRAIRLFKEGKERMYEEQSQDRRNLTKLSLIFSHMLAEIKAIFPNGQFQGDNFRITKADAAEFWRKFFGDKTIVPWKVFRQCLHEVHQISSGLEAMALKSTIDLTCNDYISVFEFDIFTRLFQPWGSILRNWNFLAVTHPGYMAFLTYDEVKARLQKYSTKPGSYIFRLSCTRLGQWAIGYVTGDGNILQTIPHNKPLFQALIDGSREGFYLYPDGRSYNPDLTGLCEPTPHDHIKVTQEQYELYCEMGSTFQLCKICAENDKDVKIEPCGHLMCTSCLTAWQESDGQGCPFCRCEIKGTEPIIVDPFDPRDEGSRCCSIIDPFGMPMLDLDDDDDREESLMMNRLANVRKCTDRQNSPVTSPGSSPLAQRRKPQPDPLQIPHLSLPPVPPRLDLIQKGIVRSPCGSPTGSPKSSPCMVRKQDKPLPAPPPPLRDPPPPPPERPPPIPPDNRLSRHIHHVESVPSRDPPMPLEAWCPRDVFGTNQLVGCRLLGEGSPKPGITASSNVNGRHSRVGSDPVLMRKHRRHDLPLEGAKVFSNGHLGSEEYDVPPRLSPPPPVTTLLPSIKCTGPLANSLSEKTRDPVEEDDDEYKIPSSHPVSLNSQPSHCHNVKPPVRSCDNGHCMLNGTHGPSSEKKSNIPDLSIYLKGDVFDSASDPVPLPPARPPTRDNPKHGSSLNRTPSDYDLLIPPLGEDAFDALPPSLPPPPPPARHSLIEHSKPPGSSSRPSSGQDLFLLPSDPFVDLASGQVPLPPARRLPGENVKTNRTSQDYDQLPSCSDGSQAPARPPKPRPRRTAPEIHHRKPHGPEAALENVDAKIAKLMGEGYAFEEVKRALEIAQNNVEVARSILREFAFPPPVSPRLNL

[2] = Lipophilicity, log D of the compound in octanol and sodium phosphate buffer at pH 7.4 incubated for 3 hrs under shaking condition by shake flask method based LC-MS/MS analysis; format: physicochemical
[3] = target: T1, E3 ubiquitin-protein ligase CBL-B; assay: Inhibition of Cbl-b in cryo-preserved human CD3-positive T cells assessed as increase in IL-2 production preincubated for 1 hr followed by alpha-CD3 coated stimulation for 24 hrs by flow cytometry method; format: cell-based, CD3-positive T cell
[4] = target: T2, Cholecystokinin receptor type A (Homo sapiens, UniProt P32238); assay: Displacement of […] from human CCKA receptor expressed in CHO cell membrane incubated for 60 mins by scintillation counter method; format: toxicity, cell membranes
T2 sequence (P32238 whole entry): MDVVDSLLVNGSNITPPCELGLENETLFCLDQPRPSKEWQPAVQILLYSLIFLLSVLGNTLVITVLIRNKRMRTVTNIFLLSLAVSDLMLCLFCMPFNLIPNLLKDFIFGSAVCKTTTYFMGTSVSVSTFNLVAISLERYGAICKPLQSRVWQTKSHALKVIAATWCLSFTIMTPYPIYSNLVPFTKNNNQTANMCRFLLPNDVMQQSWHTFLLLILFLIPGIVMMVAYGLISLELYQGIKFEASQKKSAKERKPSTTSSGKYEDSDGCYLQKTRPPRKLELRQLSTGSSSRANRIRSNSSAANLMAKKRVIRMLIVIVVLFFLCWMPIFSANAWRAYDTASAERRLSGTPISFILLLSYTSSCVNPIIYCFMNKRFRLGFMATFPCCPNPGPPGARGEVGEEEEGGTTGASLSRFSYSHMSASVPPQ

[5] = target: T1, E3 ubiquitin-protein ligase CBL-B; assay: Binding affinity to avidin-biotinylated Cbl-b at (36 to 427 residues) (unknown origin) assessed as dissociation constant by SPR analysis
[6] = target: T1, E3 ubiquitin-protein ligase CBL-B; assay: Inhibition of recombinant Cbl-b (unknown origin) mediated ZAP70 ubiquitination incubated for 60 mins by TR-FRET assay
[7] = target: T1, E3 ubiquitin-protein ligase CBL-B; assay: Inhibition of recombinant Cbl-b (unknown origin) ubiquitination incubated for 60 mins in presence of ATP by TR-FRET assay

Structure (SMILES): O=C(NC1N=C(c2ccccc2)c2ccccc2NC1=O)c1ccccc1CN1CCn2nccc2C1 (racemic)
- IC50 [1]: 710 nM
- logD at 3 h [2]: 3.9

Structure (SMILES): O=C(NC1N=C(c2ccccc2)c2ccccc2NC1=O)c1ccccc1CN1CCn2nncc2C1 (racemic)
- IC50 [1]: 300 nM
- logD at 3 h [2]: 2.9

Structure (SMILES): C[C@@H]1CN(Cc2ccccc2C(=O)NC2N=C(c3ccccc3)c3ccccc3NC2=O)C[C@H](C)O1 (mixture of isomers)
- IC50 [1]: 1800 nM
- logD at 3 h [2]: 4.3

Structure (SMILES): C[C@H]1CN(Cc2ccccc2C(=O)NC2N=C(c3ccccc3)c3ccccc3NC2=O)CCO1 (mixture of isomers)
- IC50 [1]: 26 nM
- logD at 3 h [2]: 4.2

Structure (SMILES): O=C(N[C@@H]1N=C(c2ccccc2)c2ccccc2NC1=O)c1ccccc1CN1CCOCC1
- IC50 [1]: 8000 nM
- logD at 3 h [2]: 3.9

Structure (SMILES): O=C(NC1N=C(c2ccccc2)c2ccccc2NC1=O)c1ccccc1N1CCOCC1 (racemic)
- IC50 [1]: > 100000 nM

Structure (SMILES): C[C@H]1CN(Cc2ccccc2C(=O)N[C@H]2N=C(c3ccccc3)c3ccc(C(=O)N4CCN(C)C(=O)C4)cc3NC2=O)CCO1
- IC50 [1]: 13 nM
- logD at 3 h [2]: 2.5
- EC50 [3]: 1650 nM
- Ki [4]: > 100000 nM

- IC50 [1]: 9 nM
- Kd [5]: 3 nM
Structure (SMILES): C[C@H]1CCCN(Cc2cc3c(c(C(F)(F)F)c2)CN(c2cccc([C@]4(c5nncn5C)C[C@@H](C)C4)c2)C3=O)C1

Structure (SMILES): O=C(NC1N=C(c2ccccc2)c2ccccc2NC1=O)c1ccoc1CN1CCOCC1 (racemic)
- IC50 [1]: 1500 nM
- logD at 3 h [2]: 3.1

Structure (SMILES): O=C(NC1N=C(c2ccccc2)c2ccccc2NC1=O)c1ccccc1CN1CCOCC1 (racemic)
- IC50 [1]: 210 nM
- logD at 3 h [2]: 3.8
- Kd [5]: 400 nM

Structure (SMILES): COCCNC(=O)c1ccc2c(c1)NC(=O)[C@@H](NC(=O)c1ccccc1CN1CCO[C@@H](C)C1)N=C2c1ccccc1
- IC50 [1]: 13 nM
- logD at 3 h [2]: 3.7
- EC50 [3]: 2610 nM
- Ki [4]: 24300 nM

Structure (SMILES): CC1(C)CN(Cc2ccccc2C(=O)NC2N=C(c3ccccc3)c3ccccc3NC2=O)CCO1 (racemic)
- IC50 [1]: 3900 nM
- logD at 3 h [2]: 4.3

Structure (SMILES): C[C@H]1CN(Cc2ccccc2C(=O)N[C@H]2N=C(c3ccccc3)c3ccncc3NC2=O)CCO1
- IC50 [1]: 15 nM
- logD at 3 h [2]: 3.3
- EC50 [3]: 410 nM
- Ki [4]: > 100000 nM
- IC50 [6]: 37200 nM
- IC50 [7]: 50500 nM

Structure (SMILES): O=C(N[C@H]1N=C(c2ccccc2)c2ccccc2NC1=O)c1ccccc1CN1CCOCC1
- IC50 [1]: 94 nM
- logD at 3 h [2]: 3.9

Structure (SMILES): C[C@H]1CN(Cc2ccccc2C(=O)N[C@H]2N=C(c3ccccc3)c3ccccc3NC2=O)CCO1
- IC50 [1]: 13 nM
- logD at 3 h [2]: 4.1
- EC50 [3]: 14000 nM
- Ki [4]: 3720 nM

Structure (SMILES): C[C@@H]1CN(Cc2ccccc2C(=O)NC2N=C(c3ccccc3)c3ccccc3NC2=O)CCO1 (mixture of isomers)
- IC50 [1]: 31 nM
- logD at 3 h [2]: 4.1

Structure (SMILES): O=C(NC1N=C(c2ccncc2)c2ccccc2NC1=O)c1ccccc1CN1CCOCC1 (racemic)
- IC50 [1]: 2000 nM
- logD at 3 h [2]: 2.6

Structure (SMILES): O=C(NC1N=C(c2ccccc2)c2ccccc2NC1=O)c1ccccc1CN1CCCCC1 (racemic)
- IC50 [1]: > 100000 nM

Structure (SMILES): O=C(NC1N=C(c2ccccc2)c2ccccc2NC1=O)c1sccc1CN1CCOCC1 (racemic)
- IC50 [1]: 360 nM
- logD at 3 h [2]: 3.3

Structure (SMILES): C[C@@H]1CN(Cc2ccccc2C(=O)N[C@H]2N=C(c3ccccc3)c3ccccc3NC2=O)CCO1
- IC50 [1]: 10 nM
- logD at 3 h [2]: 4.1
- EC50 [3]: > 30000 nM
- Ki [4]: 2630 nM

Structure (SMILES): O=C(NC1N=C(c2cc[nH]c(=O)c2)c2ccccc2NC1=O)c1ccccc1CN1CCOCC1 (racemic)
- IC50 [1]: 11000 nM
- logD at 3 h [2]: 1.7

Structure (SMILES): O=C(NC1N=C(c2ccc[nH]c2=O)c2ccccc2NC1=O)c1ccccc1CN1CCOCC1 (racemic)
- IC50 [1]: 20000 nM
- logD at 3 h [2]: 1.2

Structure (SMILES): C[C@@H]1COCCN1Cc1ccccc1C(=O)NC1N=C(c2ccccc2)c2ccccc2NC1=O (mixture of isomers)
- IC50 [1]: 4800 nM
- logD at 3 h [2]: 3.9

Structure (SMILES): O=C(NC1N=C(c2ccccc2)c2ccccc2NC1=O)c1cnccc1CN1CCOCC1 (racemic)
- IC50 [1]: 1300 nM
- logD at 3 h [2]: 2.7

Structure (SMILES): C[C@H]1COCCN1Cc1ccccc1C(=O)NC1N=C(c2ccccc2)c2ccccc2NC1=O (mixture of isomers)
- IC50 [1]: 1900 nM
- logD at 3 h [2]: 4

Structure (SMILES): Cn1ncc2c1CN(Cc1ccccc1C(=O)NC1N=C(c3ccccc3)c3ccccc3NC1=O)C2 (racemic)
- IC50 [1]: 350 nM
- logD at 3 h [2]: 3.8
